Experimental data from patent publication US4696920A, “Certain 2-substituted 1,3-propylidenediphosphonate derivatives, pharmaceutical compositions containing them and their use as antihypertensive agents” (priority 1984, dated 1987).
Read-outs that look alike come from different tables or passages of the source.

Key:
[1] = tested on: calcium channel binding site for [^3 H]-Nitrendipine (rat brain membranes); assay: [^3 H]-Nitrendipine binding to rat brain membranes; design: species or system rat (male Wistar); conditions: for Specifically bound [^3 H]-Nitrendipine % of control value: compound concentration 1.0 μM; for Specifically bound [^3 H]-Nitrendipine % of control value / Bound ^3 H at 1.0 μM / Bound ^3 H at 0.1 μM / modulation of [^3 H]-Nitrendipine binding (in words): Table 1a; for Bound ^3 H at 1.0 μM / Bound ^3 H at 0.1 μM: ratio of [^3 H]-Nitrendipine bound at 1.0 and 0.1 μM compound
Experimental: Diltiazem hydrochloride was a generous gift from Goedecke A. G.
Suitable dilutions were made in 50 mM Tris-HCl buffer (pH 7.4) containing 150 mM NaCl and 1 mM CaCl2. The ethanol concentration in the final assay never exceeded 0.1%.
The purity of the radioligand and of the various agents tested was monitored by thin layer chromatography on silica gel plates.
The following procedure was adapted from Bellemann et al (Proc. Nat. Acad. Sci. 80, 2356, 1983), and Gould et al (Proc. Nat. Acad. Sci. 79, 3656, 1982).
Adult male Wistar rats weighing 250-300 g were anesthetized with carbon dioxide prior to decapitation. The brain was removed then immersed in ice-cold 0.32M sucrose and washed 2-3 times with fresh solution. Cerebral cortex was minced and homogenized (Potter-Elvehjem homogenizer) in 10 volumes of ice-cold sucrose solution. The homogenate was centrifuged (4° C.) at 1000×g for 15 minutes. The resulting supernatant was then centrifuged at 90000×g (30 minutes) and the pellet was washed twice with 20 ml ice-cold 50 mM Tris-HCl pH 7.4.
The final pellet was resuspended in 50 mM Tris-HCl pH 7.4/150 mM NaCl/1 mM CaCl2 to give a protein concentration of 4 mg/ml.
The membrane suspension was kept on ice until used. Binding assays were performed in subdued light to prevent dihydropyridine breakdown. Membrane protein (400 μg/tube) was incubated in 50 mM Tris-HCl buffer (pH 7.4)/150 mM NaCl/1 mM CaCl2 with the indicated concentrations of radioligand and test compounds or known calcium antagonists, in a total volume of 2 ml. After the indicated time intervals, the reaction was terminated by rapid filtration through Whatman GF/B glass fiber filters (2.4 cm diameter) on a Millipore filter holder. The assay tube was rinsed with 2 ml ice-cold 50 mM Tris-HCl pH (7.4) and the precipitate was further washed with 2×5 ml of the same buffer.
Filters were dried under a heat lamp and were extracted with 10 ml of liquid scintillation cocktail (Toluene/Triton X-100, 2/1 containing 4 g Omnifluor/1) prior to tritium determination at 48% counting efficiency.
Assays were performed in duplicate or triplicate.
Data were expressed as percent specific [^3 H]-Nitrendipine binding relative to the established control value.
Compound activity in the [^3 H]-Nitrendipine binding assay was evaluated by using the following criteria:
1. [^3 H]-Nitrendipine binding at 1.0 μM compound final concentration was either below 95% or above 105% of the control value determined in absence of compound.
2. […] This ratio is indicative of a dose response relationship within the compound concentration range tested, when the value differs appreciably from 1.0.

[2] = tested on: rat trachea contraction induced by KCl depolarization; assay: KCl-induced rat trachea contraction; design: species or system rat (male SHR, Okamoto-Aoki); conditions: for activity at 1 µM: Rattus norvegicus, 40 min, read-out: Contraction (% max.)
Experimental: Spontaneously hypertensive male rats (SHR) Okamoto-Aoki Strain, weighing 300-400 g were used in this study. They were killed by bleeding after Pentobarbital anesthesia (Nembutal, Abbott Co, 40 mg/kg). Their entire trachea was quickly removed and dissected free of fat and connective tissue in Krebs-Ringer solution. A strip (4 mm×40 mm), obtained by spirally cutting the trachea, was immediately suspended in a 50 ml Krebs-Ringer solution and continuously bubbled with a O2 /CO2 (95/5) mixture. Bath temperature was maintained at 37±1° C. The composition (mM) of the Krebs-Ringer solution modified by Nghiem, was as follows: NaCl, (118.0); KCl, (4.7); CaCl2, (2.5); MgCl2, (1.18); NaHCO3, (12.5); KH2 P04, (1.18); glucose, (5.5) in bidistilled water (pH 7.4). Each strip was equilibrated under initial tension (1.5-2 g) for 1-2 hours and the bath solution changed every 30 min. A contractile or relaxant response was isometrically measured with a force-displacement transducer (Ugo-Basile) and recorded on a polygraph (Beckman).
After equilibration, KCl was added to the bath at 65 mM final concentration. This concentration produced maximum trachea contraction. Under these conditions, a plateau phase showing a tonic sustained contraction was reached within 30 minutes. Drugs were added 30 minutes after the plateau phase has been reached (final concentration=1.0 μM). […] Recordings of the residual trachea contraction were made 40 minutes after drug addition to the bathing fluid. The initial KCl induced contraction was taken as the maximum KCl response (100%). Results were expressed as % of maximal contraction. Nifedipine, Prenylamine, Flunarizine and Diltiazem were used as reference standards to validate this assay.
All 1,3-diphosphonates and drugs were dissolved in saline (0.9% NaCl) except when water insoluble, then the compounds were dissolved in 2% ethanol. The final concentration of ethanol used has been shown not to interfere with the assay.
Results are expressed as mean values±SEM, the Student's t-test was used for statistical analysis.

[3] = final concentration 1.0 μM, 65 mM KCl, 40 minutes after drug addition, mean ± SEM

Row | SMILES | Specifically bound [^3 H]-Nitrendipine % of control value [1] | Bound ^3 H at 1.0 μM / Bound ^3 H at 0.1 μM [1] | activity at 1 µM [2] [%] | activity on KCl-induced trachea contraction (in words) ([2]; final concentration 1.0 μM) | modulation of [^3 H]-Nitrendipine binding (in words) [1] | activity at 1 µM [2, 3] [%] | % [^3 H]-Nitrendipine bound ([1]; reference standards at 1 μM) [%]
1 | O=P(O)(O)CC(Cc1ccccc1)CP(=O)(O)O [Compound 2, 2-Benzyl-1,3-propylidenediphosphonic acid] | 98 % of control value | 1.002 | – | – | – | – | –
2 | O=P(O)(O)CC(CCc1ccccc1)CP(=O)(O)O [Compound 3] | 94 % of control value | 0.955 | – | – | – | – | –
3 | O=P(O)(O)CC(CCCc1ccccc1)CP(=O)(O)O [Compound 4] | 99 % of control value | 0.957 | – | – | – | – | –
4 | O=P(O)(O)CC(Cc1ccc(Cl)cc1)CP(=O)(O)O [Compound 5] | 99 % of control value | 1.003 | – | – | – | – | –
5 | COP(=O)(CC(Cc1ccccc1)CP(=O)(OC)OC)OC [Compound 10, Tetramethyl 2-benzyl-1,3-propylidenediphosphonate] | 92 % of control value | 0.983 | 91 | – | – | – | –
6 | COP(=O)(CC(CCc1ccccc1)CP(=O)(OC)OC)OC [Compound 11] | 96 % of control value | 1.024 | – | – | – | – | –
7 | CCOP(=O)(CC(Cc1cccc2ccccc12)CP(=O)(OCC)OCC)OCC [Compound 37] | 104 % of control value | 1.011 | 53.8 ± 0.4 | potent pharmacological activity | – | – | –
8 | CCOP(=O)(CC(Cc1ccc(-c2ccccc2)cc1)CP(=O)(OCC)OCC)OCC [Compound 38] | 60 % of control value | 0.721 | 84 ± 2.4 | potent pharmacological activity | strong inhibitors | – | –
9 | CCOP(=O)(CC(CP(=O)(OCC)OCC)C(c1ccccc1)c1ccccc1)OCC [Compound 39] | 110 % of control value | 1.220 | 96 ± 4.9 | – | – | – | –
10 | CCOP(=O)(CC(CP(=O)(OCC)OCC)c1ccccn1)OCC [Compound 40] | 100 % of control value | 0.978 | 61.2 ± 4.6 | potent pharmacological activity | – | – | –
11 | CC(C)OP(=O)(CC(CCCc1ccccc1)CP(=O)(OC(C)C)OC(C)C)OC(C)C [Compound 56] | 115 % of control value | 1.115 | 100 | – | activators | – | –
12 | CCCCCC(CP(=O)(OCCCC)OCCCC)CP(=O)(OCCCC)OCCCC [Compound 66] | 26 % of control value | 0.387 | 88.5 ± 0.5 | – | strong inhibitors | – | –
13 | CCCCOP(=O)(CC(CCCC1CCCCC1)CP(=O)(OCCCC)OCCCC)OCCCC [Compound 68, Tetrabutyl 2-(3-Cyclohexylpropyl)-1,3-propylidenediphosphonate] | 0 % of control value | 0.000 | 100 ± 4 | – | strong inhibitors | – | –
14 | CCCCOP(=O)(CC(Cc1ccc(-c2ccccc2)cc1)CP(=O)(OCCCC)OCCCC)OCCCC [Compound 84] | 80 % of control value | 0.886 | 98.5 ± 2.5 | – | – | – | –
15 | CCCCOP(=O)(CC(CP(=O)(OCCCC)OCCCC)C(c1ccccc1)c1ccccc1)OCCCC [Compound 85] | 112 % of control value | 1.082 | 96.2 ± 0.8 | – | – | – | –
16 | CCCCOP(=O)(CC(CP(=O)(OCCCC)OCCCC)c1ccccn1)OCCCC [Compound 86] | 98 % of control value | 1.052 | 89 ± 2 | – | – | – | –
17 | CCCCOP(=O)(CC(Cc1ccncc1)CP(=O)(OCCCC)OCCCC)OCCCC [Compound 87] | 93 % of control value | 0.967 | 71.9 ± 1.9 | potent pharmacological activity | – | – | –
18 | CCCCOP(=O)(CC(CCCc1cccnc1)CP(=O)(OCCCC)OCCCC)OCCCC [Compound 88] | 69 % of control value | 0.760 | 56.3 ± 5.9 | potent pharmacological activity | strong inhibitors | – | –
19 | CC(C)COP(=O)(CC(CCCc1ccccc1)CP(=O)(OCC(C)C)OCC(C)C)OCC(C)C [Compound 111] | 57 % of control value | 0.809 | – | – | – | 100 ± 1.5 | –
20 | CCCCCOP(=O)(CC(CCCc1ccccc1)CP(=O)(OCCCCC)OCCCCC)OCCCCC [Compound 112, Tetrapentyl 2-(3-phenylpropyl)-1,3-propylidenediphosphonate] | 0 % of control value | 0.645 | – | – | – | 84 ± 3 | –
21 | CCCCCCOP(=O)(CC(CCCc1ccccc1)CP(=O)(OCCCCCC)OCCCCCC)OCCCCCC [Compound 113, Tetrahexyl 2-(3-phenylpropyl)-1,3-propylidenediphosphonate] | 20 % of control value | 0.621 | – | – | strong inhibitors | 90 ± 1.5 | –
22 | CCN(CC)CCCCCCCCOC(=O)c1cc(OC)c(OC)c(OC)c1 [TMB-8, reference compound] | – | – | – | – | – | – | 95
